Counter-ions that a name gives are not always drawn.
Target: recombinant human AMPK complex 1 (containing α1β1γ1) (Homo sapiens, UniProt Q13131+Q9Y478)
Assay: […] (in vitro AMPK activation assay)
Assay type: biochemical
Conditions: recombinant human AMPK complex 1 (α1β1γ1); basal activity subtracted; read-out: % Maximum AMP Activation of human AMPK Complex 1

recombinant human AMPK complex 1 (containing α1β1γ1), sequence (Q13131 whole entry): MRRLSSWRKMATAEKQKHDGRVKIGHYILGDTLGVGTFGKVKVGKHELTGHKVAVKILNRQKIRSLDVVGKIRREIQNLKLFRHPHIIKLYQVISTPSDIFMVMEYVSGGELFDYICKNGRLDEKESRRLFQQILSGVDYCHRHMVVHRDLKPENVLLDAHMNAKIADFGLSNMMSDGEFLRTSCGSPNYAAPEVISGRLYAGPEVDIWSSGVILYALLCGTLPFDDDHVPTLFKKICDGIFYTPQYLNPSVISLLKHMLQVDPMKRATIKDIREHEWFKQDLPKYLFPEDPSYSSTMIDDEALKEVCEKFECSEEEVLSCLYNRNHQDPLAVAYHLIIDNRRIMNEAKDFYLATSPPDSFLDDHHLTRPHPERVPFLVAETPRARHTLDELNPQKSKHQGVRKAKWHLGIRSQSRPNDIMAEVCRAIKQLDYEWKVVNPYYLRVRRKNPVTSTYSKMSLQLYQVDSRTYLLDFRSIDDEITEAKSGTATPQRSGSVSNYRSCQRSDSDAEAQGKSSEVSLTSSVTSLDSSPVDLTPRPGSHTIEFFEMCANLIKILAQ
recombinant human AMPK complex 1 (containing α1β1γ1), sequence (Q9Y478 whole entry): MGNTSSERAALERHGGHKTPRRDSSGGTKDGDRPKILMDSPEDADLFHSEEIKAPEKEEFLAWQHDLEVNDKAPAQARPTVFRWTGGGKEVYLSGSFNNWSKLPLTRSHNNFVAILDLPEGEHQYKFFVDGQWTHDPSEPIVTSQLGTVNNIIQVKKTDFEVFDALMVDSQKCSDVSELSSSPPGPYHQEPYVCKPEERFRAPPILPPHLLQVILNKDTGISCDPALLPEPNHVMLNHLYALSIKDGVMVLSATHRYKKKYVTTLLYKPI
recombinant human AMPK complex 1 (containing α1β1γ1), sequence (P54619 whole entry partner): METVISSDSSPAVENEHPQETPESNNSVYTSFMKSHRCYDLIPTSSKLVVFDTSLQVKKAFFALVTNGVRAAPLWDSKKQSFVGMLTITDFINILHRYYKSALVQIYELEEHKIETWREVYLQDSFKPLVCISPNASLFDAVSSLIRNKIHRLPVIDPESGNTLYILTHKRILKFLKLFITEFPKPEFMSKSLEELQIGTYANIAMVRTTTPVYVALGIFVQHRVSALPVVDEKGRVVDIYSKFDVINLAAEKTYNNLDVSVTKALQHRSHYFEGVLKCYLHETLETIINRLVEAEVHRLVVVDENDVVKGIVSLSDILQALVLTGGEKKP

Row | SMILES | Emax
1 | Cc1ccc(Oc2nc3cc(C#CC(C)(C)O)c(Cl)cc3[nH]2)cc1C(=O)O [Example 154, 5-[6-Chloro-5-(3-hydroxy-3-methyl-but-1-ynyl)-1H-benzoimidazol-2-yloxy]-2-methyl-benzoic acid] | > 80%
2 | O=C(O)Cc1ccc(Oc2nc3cc(-c4ccc(-c5ccccc5)cc4)c(Cl)cc3[nH]2)cc1 [Example 26, [4-(5-Biphenyl-4-yl-6-chloro-1H-benzoimidazol-2-yloxy)-phenyl]-acetic acid] | > 80%
3 | O=C(O)CCc1ccc(Oc2nc3cc(-c4ccc(-c5ccccc5)cc4)c(Cl)cc3[nH]2)cc1 [Example 25, 3-[4-(5-Biphenyl-4-yl-6-chloro-1H-benzoimidazol-2-yloxy)-phenyl]-propionic acid] | > 80%
4 | O=C(O)c1cccc(Nc2nc3cc(-c4ccc(-c5ccccc5O)cc4)c(Cl)cc3[nH]2)c1 [Example 52, 3-[6-Chloro-5-(2′-hydroxy-biphenyl-4-yl)-1H-benzoimidazol-2-ylamino]-benzoic acid] | > 80%
5 | Cc1ccc(Oc2nc3cc(-c4ccc(N(C)C)c(C(F)(F)F)c4)c(Cl)cc3[nH]2)cc1C(=O)O [Example 295, 2-(3-carboxy-4-methylphenoxy)-6-chloro-5-[4-(dimethylamino)-3-(trifluoromethyl)phenyl]-1H-3,1-benzimidazol-3-ium chloride] | > 80%
6 | COc1cccc(-c2cc3nc(Oc4ccc(C)c(C(=O)O)c4)[nH]c3cc2Cl)n1 [Example 334, 2-(3-carboxy-4-methylphenoxy)-6-chloro-5-(6-methoxypyridin-2-yl)-1H-3,1-benzimidazol-3-ium formate] | > 80%
7 | COC(=O)c1c(C)cc(Oc2nc3cc(-c4ccc(-c5ccccc5)cc4)c(Cl)cc3[nH]2)cc1C(=O)O [Example 12, 5-(5-Biphenyl-4-yl-6-chloro-1H-benzoimidazol-2-yloxy)-3-methyl-phthalic acid 2-methyl ester] | > 80%
8 | Cc1ccc(Oc2nc3cc(C#Cc4ccc(-c5cn[nH]c5)cc4)c(Cl)cc3[nH]2)cc1C(=O)O [Example 82, 5-{6-Chloro-5-[4-(1H-pyrazol-4-yl)-phenylethynyl]-1H-benzoimidazol-2-yloxy}-2-methyl-benzoic acid] | > 80%
9 | O=C(O)c1cc(Oc2nc3cc(-c4ccc(CO)cc4)c(Cl)cc3[nH]2)ccc1Cl [Example 60, 2-Chloro-5-[6-chloro-5-(4-hydroxymethyl-phenyl)-1H-benzoimidazol-2-yloxy]-benzoic acid] | > 80%
10 | Cc1ccc(Oc2nc3cc(-c4ccc(-c5ccc(O)nc5)cc4)c(Cl)cc3[nH]2)cc1C(=O)O [Example 188, 5-({6-chloro-5-[4-(6-hydroxypyridin-3-yl)phenyl]-1H-benzimidazol-2-yl}oxy)-2-methylbenzoic acid] | > 80%
11 | COC(=O)c1cc(Oc2nc3cc(C#Cc4cccc(C)c4)c(Cl)cc3[nH]2)ccc1C [Example 100, 5-(6-Chloro-5-m-tolylethynyl-1H-benzoimidazol-2-yloxy)-2-methyl-benzoic acid methyl ester] | > 80%
12 | Cc1ccc(Oc2nc3cc(-c4sc(-c5ccccc5)nc4C)c(Cl)cc3[nH]2)cc1C(=O)O [Example 361, 5-[6-chloro-5-(4-methyl-2-phenyl-thiazol-5-yl)-1H-benzoimidazol-2-yloxy]-2-methyl-benzoic acid] | > 80%
13 | Cc1cc(C)c(C(=O)O)cc1Oc1nc2cc(-c3ccc(-c4ccccc4)cc3)c(Cl)cc2[nH]1 [Example 208, 5-(5-Biphenyl-4-yl-6-chloro-1H-benzoimidazol-2-yloxy)-2,4-dimethyl-benzoic acid] | > 80%
14 | Cc1ccc(Oc2nc3cc(C#Cc4ccc(C5(O)CC5)cc4)c(Cl)cc3[nH]2)cc1C(=O)O [Example 89, 5-{6-Chloro-5-[4-(1-hydroxy-cyclopropyl)-phenylethynyl]-1H-benzoimidazol-2-yloxy}-2-methyl-benzoic acid] | > 80%
15 | Cc1ccc(Oc2nc3cc(-c4ccc(-c5ccccc5C)cc4)c(Cl)cc3[nH]2)cc1C(=O)O [Example 193, 5-{[6-chloro-5-(2′-methylbiphenyl-4-yl)-1H-benzimidazol-2-yl]oxy}-2-methylbenzoic acid] | > 80%
16 | Cc1ccc(Oc2nc3cc(C#Cc4cccc(Cl)c4)c(Cl)cc3[nH]2)cc1C(=O)O [Example 110, 5-[6-Chloro-5-(3-chloro-phenylethynyl)-1H-benzoimidazol-2-yloxy]-2-methyl-benzoic acid] | > 80%
17 | Cc1ccc(Oc2nc3cc(-c4cccc5c4ccn5C)c(Cl)cc3[nH]2)cc1C(=O)O [Example 283, 5-[6-Chloro-5-(1-methyl-1H-indol-4-yl)-1H-benzoimidazol-2-yloxy]-2-methyl-benzoic acid] | > 80%
18 | Cc1ccc(Oc2nc3cc(-c4ccc5[nH]c(-c6ccccc6)cc5c4)c(Cl)cc3[nH]2)cc1C(=O)O [Example 278, 5-[6-Chloro-5-(2-phenyl-1H-indol-5-yl)-1H-benzoimidazol-2-yloxy]-2-methyl-benzoic acid] | > 80%

Row | SMILES | Emax
19 | Cc1ccc(Oc2nc3cc(-c4ccc(N5CCOCC5)cc4)c(Cl)cc3[nH]2)cc1C(=O)O [Example 179, 5-[6-Chloro-5-(4-morpholin-4-yl-phenyl)-1H-benzoimidazol-2-yloxy]-2-methyl-benzoic acid] | > 80%
20 | Cc1ccc(Oc2nc3cc(-c4ccc5c(c4)C(C)(C)CCC5(C)C)c(Cl)cc3[nH]2)cc1C(=O)O [Example 358, 5-[6-Chloro-5-(5,5,8,8-tetramethyl-5,6,7,8-tetrahydro-naphthalen-2-yl)-1H-benzoimidazol-2-yloxy]-2-methyl-benzoic acid] | > 80%
21 | COC(=O)Cn1nnc(-c2cccc(Oc3nc4cc(-c5ccc(-c6ccccc6)cc5)c(Cl)cc4[nH]3)c2)n1 [Example 41, {5-[3-(5-Biphenyl-4-yl-6-chloro-1H-benzoimidazol-2-yloxy)-phenyl]-tetrazol-2-yl}-acetic acid methyl ester] | > 80%
22 | O=C(O)c1cc(Oc2nc3cc(-c4ccccc4O)c(Cl)cc3[nH]2)ccc1Cl [Example 59, 2-Chloro-5-[6-chloro-5-(2-hydroxy-phenyl)-1H-benzoimidazol-2-yloxy]-benzoic acid] | > 80%
23 | COC(=O)c1cc(Oc2nc3cc(C#Cc4ccc(OC(C)=O)cc4)c(Cl)cc3[nH]2)ccc1C [Example 117, 5-[5-(4-Acetoxy-phenylethynyl)-6-chloro-1H-benzoimidazol-2-yloxy]-2-methyl-benzoic acid methyl ester] | > 80%
24 | COC(=O)c1cc(Oc2nc3cc(-c4ccc(-c5ccncc5)cc4)c(Cl)cc3[nH]2)ccc1C [Example 167, 5-[6-Chloro-5-(4-pyridin-4-yl-phenyl)-1H-benzoimidazol-2-yloxy]-2-methyl-benzoic acid methyl ester] | > 80%
25 | Cc1ccc(Oc2nc3cc(C#Cc4ccc(-c5nn[nH]n5)cc4)c(Cl)cc3[nH]2)cc1C(=O)O [Example 79, 5-{6-Chloro-5-[4-(2H-tetrazol-5-yl)-phenylethynyl]-1H-benzimidazol-2-yloxy}-2-methyl-benzoic acid] | > 80%
26 | Cc1ccc(Oc2nc3cc(-c4ccc5c(c4)CCC5=O)c(Cl)cc3[nH]2)cc1C(=O)O [Example 266, 5-[6-Chloro-5-(1-oxo-indan-5-yl)-1H-benzoimidazol-2-yloxy]-2-methyl-benzoic acid] | > 80%
27 | COC(=O)Cn1c(Oc2ccc(C)c(C(=O)OC)c2)nc2cc(-c3ccc(-c4ccccc4)cc3)c(Cl)cc21 [Example 223, 5-(5-Biphenyl-4-yl-6-chloro-1-methoxycarbonyl-methyl-1H-benzoimidazol-2-yloxy)-2-methyl-benzoic acid methyl ester] | > 80%
28 | O=C(O)c1ccc(Oc2nc3cc(-c4ccc(-c5ccccc5)cc4)c(Cl)cc3[nH]2)cc1C(=O)O [Example 36, 4-(5-Biphenyl-4-yl-6-chloro-1H-benzoimidazol-2-yloxy)-phthalic acid] | > 80%
29 | Cc1ccc(Oc2nc3cc(-c4ccc(-c5ccccn5)cc4)c(Cl)cc3[nH]2)cc1C(=O)O [Example 166, 5-[6-Chloro-5-(4-pyridin-2-yl-phenyl)-1H-benzoimidazol-2-yloxy]-2-methyl-benzoic acid] | > 80%
30 | Cc1ccc(Oc2nc3cc(C#Cc4cccc(C(=O)O)c4)c(Cl)cc3[nH]2)cc1C(=O)O [Example 126, 5-[5-(3-Carboxy-phenylethynyl)-6-chloro-1H-benzoimidazol-2-yloxy]-2-methyl-benzoic acid] | > 80%
31 | Cc1ccc(Oc2nc3cc(-c4ccc5cnccc5c4)c(Cl)cc3[nH]2)cc1C(=O)O [Example 280, 5-(6-Chloro-5-isoquinolin-6-yl-1H-benzoimidazol-2-yloxy)-2-methyl-benzoic acid] | > 80%
32 | COC(=O)c1cc(Oc2nc3cc(-c4ccc(-c5ccccc5OC)cc4)c(Cl)cc3[nH]2)ccc1C [Example 197, Methyl 5-{[6-chloro-5-(2′-methoxybiphenyl-4-yl)-1H-benzimidazol-2-yl]oxy}-2-methylbenzoate] | > 80%
33 | Cc1ccc(Oc2nc3cc(-c4nc5ccccc5s4)c(Cl)cc3[nH]2)cc1C(=O)O [Example 354, 5-(5-Benzothiazol-2-yl-6-chloro-1H-benzoimidazol-2-yloxy)-2-methyl-benzoic acid] | > 80%
34 | Cc1ccc(Oc2nc3cc(-c4cnc5ccccc5c4)c(Cl)cc3[nH]2)cc1C(=O)O [Example 148, 2-(3-carboxy-4-methylphenoxy)-6-chloro-5-quinolin-3-yl-1H-3,1-benzimidazol-3-ium chloride] | > 80%
35 | Cc1ccc(Oc2nc3cc(-c4ccc(-n5cccn5)cc4)c(Cl)cc3[nH]2)cc1C(=O)O [Example 58, 5-[6-Chloro-5-(4-pyrazol-1-yl-phenyl)-1H-benzoimidazol-2-yloxy]-2-methyl-benzoic acid] | > 80%

Same assay, conditions: recombinant human AMPK complex 1 (α1β1γ1); read-out: EC50

Row | SMILES | EC50
36 | Cc1ccc(Oc2nc3cc(C#Cc4ccccc4F)c(Cl)cc3[nH]2)cc1C(=O)O [Example 67, 5({6-chloro-5-[(2-fluorophenyl)ethynyl]-1H-benzimidazol-2-yl}oxy)-2-methylbenzoic acid] | 3 nM
